Experimental data from US12084472B2 (Ardelyx, Inc., priority 2015, dated 2024).

target: T1, human TGR5 (Homo sapiens, UniProt Q8TDU6); assay: Cell-based TGR5 assay (cAMP generation, HTRF); conditions: HEK293 cells stably transfected with human TGR5; cAMP by HTRF; 30 minutes at 37° C.; read-out: pEC50 Human TGR5 (converted)
T1 construct: expressed in transfected cells; host or cells: HEK293
T1 sequence (Q8TDU6 1-330): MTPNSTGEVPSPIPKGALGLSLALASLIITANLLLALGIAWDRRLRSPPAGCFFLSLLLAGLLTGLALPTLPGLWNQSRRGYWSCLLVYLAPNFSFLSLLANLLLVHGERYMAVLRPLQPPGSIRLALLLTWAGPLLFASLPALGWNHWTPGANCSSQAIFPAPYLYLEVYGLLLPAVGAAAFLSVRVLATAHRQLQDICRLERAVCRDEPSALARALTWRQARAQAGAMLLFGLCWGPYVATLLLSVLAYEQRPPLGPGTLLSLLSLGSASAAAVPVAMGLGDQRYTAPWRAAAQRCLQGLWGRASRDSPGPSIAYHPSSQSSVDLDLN
Procedure, shortened: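 Read-out was HTRF detection of cAMP, converted to concentration via a standard curve and fitted (3-parameter logistic) for pEC50 and maximal response. Agonist stimulation used HEK293 cells stably transfected with human TGR5, incubated 30 min at 37° C in IBMX-containing buffer at 0.05 nM to 10 μM compound.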

SMILES | EC50
CS(=O)(=O)CCCN(CCCCSc1ccc(Cl)c(COC2(c3cnccc3-c3ccccc3OC3CC3)CC2)c1)C(=O)[C@@H](O)[C@@H](O)[C@H](O)[C@@H](O)CO [Compound I-523, (2S,3S,4R,5S)-N-(4-{[4-chloro-3-({1-[4-(2-cyclopropoxyphenyl)pyridin-3-yl]cyclopropoxy}methyl)phenyl]sulfanyl}butyl)-2,3,4,5,6-pentahydroxy-N-(3-methanesulfonylpropyl)hexanamide] | < 100 nM
O=C1NCCN1CCN(CCCCSc1ccc(Cl)c(CNC2(c3cnccc3-c3ccccc3OC3CC3)CC2)c1)C(=O)[C@@H](O)[C@@H](O)[C@H](O)[C@@H](O)CO [Compound I-624, (2S,3S,4R,5S)-N-[4-({4-chloro-3-[({1-[4-(2-cyclopropoxyphenyl)pyridin-3-yl]cyclopropyl}amino)methyl]phenyl}sulfanyl)butyl]-2,3,4,5,6-pentahydroxy-N-[2-(2-oxoimidazolidin-1-yl)ethyl]hexanamide] | 126 to 1000 nM
CN(CC(=O)O)C[C@H](NC(=O)CCCCc1cc(Cl)c(COC2(c3cnccc3-c3ccccc3OC3CC3)CC2)cc1Cl)[C@@H](O)[C@H](O)[C@H](O)CO (stereo in doubt) [Compound I-164, 2-{[(2S,3R,4S,5R)-2-{5-[2,5-dichloro-4-({1-[4-(2-cyclopropoxyphenyl)pyridin-3-yl]cyclopropoxy}methyl)phenyl]pentanamido}-3,4,5,6-tetrahydroxyhexyl](methyl)amino}acetic acid] | < 100 nM
Cc1cc(CNC2(c3cnccc3-c3ccccc3OC3CC3)CC2)c(C)cc1CCCCC(=O)N(C)C[C@H](O)[C@@H](O)[C@H](O)[C@H](O)CO [Compound I-149, 5-{4-[({1-[4-(2-cyclopropoxyphenyl)pyridin-3-yl]cyclopropyl}amino)methyl]-2,5-dimethylphenyl}-N-methyl-N-[(2S,3R,4R,5R)-2,3,4,5,6-pentahydroxyhexyl]pentanamide] | 126 to 1000 nM
CC(CCCN(C(=O)[C@@H](O)[C@@H](O)[C@H](O)[C@@H](O)CO)C1CCS(=O)(=O)CC1)c1ccc(Cl)c(CNC2(c3cnccc3-c3ccccc3OC3CC3)CC2)c1 (stereo partly drawn) [Compound I-295, (2S,3S,4R,5S)-N-(4-{4-chloro-3-[({1-[4-(2-cyclopropoxyphenyl)pyridin-3-yl]cyclopropyl}amino)methyl]phenyl}pentyl)-N-(1,1-dioxo-1λ^6-thian-4-yl)-2,3,4,5,6-pentahydroxyhexanamide] | < 100 nM
Cc1ccc(C(C)CCCC(=O)N(Cc2ccccc2)C[C@H](O)[C@@H](O)[C@H](O)[C@H](O)CO)cc1CNC1(c2cnccc2-c2ccccc2OC2CC2)CC1 (stereo partly drawn) [Compound I-259, N-benzyl-5-(3-(((1-(4-(2-cyclopropoxyphenyl)pyridin-3-yl)cyclopropyl)amino)methyl)-4-methylphenyl)-N-((2S,3R,4R,5R)-2,3,4,5,6-pentahydroxyhexyl) hexanamide] | < 100 nM
O=C([C@@H](O)[C@@H](O)[C@H](O)[C@@H](O)CO)N(CCCCO)CCCCSc1ccc(Cl)c(CNC2(c3cnccc3-c3ccccc3OC3CC3)CC2)c1 [Compound I-534, (2S,3S,4R,5S)-N-[4-({4-chloro-3-[({1-[4-(2-cyclopropoxyphenyl)pyridin-3-yl]cyclopropyl}amino)methyl]phenyl}sulfanyl)butyl]-2,3,4,5,6-pentahydroxy-N-(4-hydroxybutyl)hexanamide] | < 100 nM
CSc1cc(CNC2(c3cnccc3-c3ccccc3OC3CC3)CC2)c(C)cn1 [Compound I-619, [4-(2-cyclopropoxyphenyl)pyridin-3-yl]-N-{[5-methyl-2-(methylsulfanyl)pyridin-4-yl]methyl}cyclopropan-1-amine] | < 100 nM
Cc1ccc(SCCCC(=O)N(C)C[C@H](O)[C@@H](O)[C@H](O)[C@H](O)CO)nc1CNC1(c2cnccc2-c2ccccc2OC2CC2)CC1 [Compound I-654, 4-({6-[({1-[4-(2-cyclopropoxyphenyl)pyridin-3-yl]cyclopropyl}amino)methyl]-5-methylpyridin-2-yl}sulfanyl)-N-methyl-N-[(2S,3R,4R,5R)-2,3,4,5,6-pentahydroxyhexyl]butanamide] | 1260 to 10000 nM
CCS(=O)(=O)CCN(CCCC(C)c1ccc(Cl)c(CNC2(c3cnccc3-c3ccccc3OC3CC3)CC2)c1)C(=O)[C@@H](O)[C@@H](O)[C@H](O)[C@@H](O)CO (stereo partly drawn) [Compound I-293, (2S,3S,4R,5S)-N-(4-{4-chloro-3-[({1-[4-(2-cyclopropoxyphenyl)pyridin-3-yl]cyclopropyl}amino)methyl]phenyl}pentyl)-N-[2-(ethanesulfonyl)ethyl]-2,3,4,5,6-pentahydroxyhexanamide] | < 100 nM
COc1cc(C)c(CNC2(c3cnccc3-c3ccccc3OC3CC3)CC2)cc1C [Compound I-29, 1-[4-(2-cyclopropoxyphenyl)pyridin-3-yl]-N-[(4-methoxy-2,5-dimethylphenyl)methyl]cyclopropan-1-amine] | 126 to 1000 nM
Clc1ccc(Cl)c(COC2(c3cnccc3-c3ccccc3OC3CC3)COC2)c1 [Compound I-59, 4-(2-cyclopropoxyphenyl)-3-[3-[(2,5-dichlorophenyl)methoxy]oxetan-3-yl]pyridine] | < 100 nM
O=C1O[C@H]([C@@H](O)[C@H](O)[C@H](O)CO)CN1CCCCc1cc(Cl)c(COC2(c3cnccc3-c3ccccc3OC3CC3)CC2)cc1Cl [Compound I-77, (5S)-3-{4-[2,5-dichloro-4-({1-[4-(2-cyclopropoxyphenyl)pyridin-3-yl]cyclopropoxy}methyl)phenyl]butyl}-5-[(1S,2R,3R)-1,2,3,4-tetrahydroxybutyl]-1,3-oxazolidin-2-one] | < 100 nM
C[C@H](CCCCNC(=O)NC[C@H](O)[C@@H](O)[C@H](O)[C@H](O)CO)c1ccc(Cl)c(COC2(c3cnccc3-c3ccccc3OC3CC3)CC2)c1 (single isomer, unassigned) [Compound I-273] | < 100 nM
CC(=O)N(CCCSc1ccc(Cl)c(COC2(c3cnccc3-c3ccccc3OC3CC3)CC2)c1)C[C@H](O)[C@@H](O)[C@H](O)[C@H](O)CO [Compound I-500, N-(3-{[4-chloro-3-({1-[4-(2-cyclopropoxyphenyl)pyridin-3-yl]cyclopropoxy}methyl)phenyl]sulfanyl}propyl)-N-[(2S,3R,4R,5R)-2,3,4,5,6-pentahydroxyhexyl]acetamide] | < 100 nM
CCS(=O)(=O)CCN(CCCC(C)c1ccc(C)c(CNC2(c3cnccc3-c3ccccc3OC3CC3)CC2)c1)C(=O)[C@@H](O)[C@@H](O)[C@H](O)[C@@H](O)CO (stereo partly drawn) [Compound I-307, (2S,3S,4R,5S)-N-(4-{3-[({1-[4-(2-cyclopropoxyphenyl)pyridin-3-yl]cyclopropyl}amino)methyl]-4-methylphenyl}pentyl)-N-[2-(ethanesulfonyl)ethyl]-2,3,4,5,6-pentahydroxyhexanamide] | < 100 nM
CC(CCCC(=O)NCCN1CCN(C(=O)NC[C@H](O)[C@@H](O)[C@H](O)[C@H](O)CO)CC1)c1ccc(Cl)c(CNC2(c3cnccc3-c3ccccc3OC3CC3)CC2)c1 (stereo partly drawn) [Compound I-322, 4-[2-(5-{4-chloro-3-[({1-[4-(2-cyclopropoxyphenyl)pyridin-3-yl]cyclopropyl}amino)methyl]phenyl}hexanamido)ethyl]-N-[(2S,3R,4R,5R)-2,3,4,5,6-pentahydroxyhexyl]piperazine-1-carboxamide] | < 100 nM
